Measured values: patent US20250115943A1, “SYSTEM AND METHOD FOR ANTIMICROBIAL SUSCEPTIBILITY TESTING” (priority 2023, published 2025)
Values after ≈ are worked out from the molar mass of the structure shown. Where two headings read alike, the source gives them in different places.

Experiments:
[1] = tested on: E. coli ATCC 25922; assay: CytoSPAR BLAST antibiotic susceptibility test; type: cell-based; details: for MIC: Escherichia coli
Description: (§1) The disclosed technology, which is referred to as the CytoSPAR BLAST (Bacteria Labeling Antibiotic Susceptibility Test) system, is used to quantitatively assess bacterial minimal inhibitory concentration of antibiotics for in vitro susceptibility testing. Used as an aid in diagnosis for clinicians in determining potential treatment options for patients suspected of having a microbial infection, BLAST is intended to determine susceptibility of microorganisms to the listed antibiotics (or other antimicrobials) according to manufacturer's standards. The system is intended for use with clinical isolates from liquid culture and colonies grown on agar (solid medium) or directly from urine samples. Certain implementations of BLAST determine antibiotic susceptibility for a wide range of bacteria obtained from various types of patient samples, including samples from individuals suffering from urinary tract infections. The disclosed technology includes a high-throughput assay that directly detects bacterial susceptibility to a library of frequently used antibiotics and covers both Gram-negative and Gram-positive bacteria.
(§2) The test incorporates a non-canonical amino acid (ncAA) into newly produced proteins. The incorporated ncAA includes a reactive group which allows a specific modification and detection of the living bacteria. The assay involves bacterial incorporation of the ncAA, a chemical reaction between a reactive group and a fluorophore-tagged ligand, and detection of the newly fluorescent-tagged bacteria using a fluorescent plate reader or functionally similar device. The ncAA is added to bacterial growth media and is incorporated into newly synthesized bacterial proteins. The reactive groups on the ncAA are not naturally found in bacteria and act as a specific reactive group for bacteria undergoing active protein synthesis. […] The entire process is performed in a microtiter filter plate for high-throughput scale-up. Alternatively, a normal 96-well plate can also be used in which case centrifugation is used to wash the plate instead of filtration.
(§3) In an example embodiment, bacterial samples are first diluted and incubated in acclimatization media. After treatment with one or more antimicrobials, the ncAA is added and is taken up by living bacteria during protein biosynthesis in a process called labeling. […] The Click-Chemistry reaction between the alkyne group of the ncAA and the azide group of the fluorophore-tagged ligand requires the presence of copper in the reduced state-copper (I). In other implementations, the functional groups of the click chemistry reaction can be changed so that the ncAA has the azide group and the dye has the alkyne group. […] Other reducing agents may be used in the BLAST assay, for example, aldoses (sugars) including glyceraldehyde, glucose, and ribose to replace sodium ascorbate. Likewise, alternate chelators may be used (e.g., histidine in place of BTTAA). In some implementations, metal-free click chemistry reactions are performed without using copper.
(§4) Using the BLAST system, tests can be performed on isolates or direct urine samples. Isolates may be from urine, blood, or other body fluids. Isolated bacteria may be either Gram-positive or Gram-negative. In an example implementation, living bacterial samples in acclimatization media (Buffer A) are distributed in a microtiter filter plate, wherein certain predetermined wells include antibiotics of interest at different concentrations. These antibiotics are arrayed with increasing concentrations in adjacent wells so that the bacterial response can be measured against each specific concentration. The response is measured quantitatively, and a value that corresponds to the ability of the bacteria to metabolize and grow is measured.

[2] = tested on: E. coli LSI 770; assay: CytoSPAR BLAST antibiotic susceptibility test; type: cell-based; details: E. coli LSI 770; for MIC: Escherichia coli, LSI770
Description: as §1, §2, §3, §4

[3] = tested on: K. pneumoniae LSI 4552; assay: CytoSPAR BLAST antibiotic susceptibility test; type: cell-based
Description: as §1, §2, §3, §4

[4] = tested on: K. pneumoniae LSI CT1045; assay: CytoSPAR BLAST antibiotic susceptibility test; type: cell-based
Description: as §1, §2, §3, §4

[5] = tested on: P. aeruginosa ATCC 27853; assay: CytoSPAR BLAST antibiotic susceptibility test; type: cell-based
Description: as §1, §2, §3, §4

[6] = tested on: P. mirabilis LSI 4698; assay: CytoSPAR BLAST antibiotic susceptibility test; type: cell-based
Description: as §1, §2, §3, §4

[7] = tested on: P. mirabilis LSI 4933; assay: CytoSPAR BLAST antibiotic susceptibility test; type: cell-based
Description: as §1, §2, §3, §4

[8] = tested on: S. aureus ATCC 29213; assay: CytoSPAR BLAST antibiotic susceptibility test; type: cell-based; details: for MIC: Staphylococcus aureus
Description: as §1, §2, §3, §4

[9] = tested on: E. coli ATCC 25922; assay: reference broth microdilution (rBMD); type: cell-based; details: Escherichia coli, ATCC25922, Table 7, geometric mean MIC rounded to nearest 2-fold dilution, n = 3
Method: (§5) Following optimization of the BLAST assay, two other tests were performed in which 12 antibiotics (covering different classes) and 8 bacterial strains (Gram-positive and Gram-negative) were assayed using the same method as described above. Different bacterial strains were tested against different antibiotics and for each pair tested, the BLAST MIC value was compared to the CLSI QC range where available, or to the reference broth microdilution (rBMD) MIC which was determined in parallel with the BLAST assay following the CLSI protocols (see references [9]).
The inoculated urine cultures were incubated overnight at 35+2° C. Each urine culture was centrifuged, and the sediment used to prepare the BLAST inoculum of 5.0×10^5 CFU/mL to start the assay as described in the protocols section. […] The spiked urine samples were tested in parallel with isolates and the resultant BLAST MIC values were compared. In addition to the BLAST test, all the samples were also tested using the reference broth microdilution (rBMD) method and the MIC values were compared.

[10] = tested on: K. pneumoniae LSI 4552; assay: reference broth microdilution (rBMD); type: cell-based; details: Klebsiella pneumoniae, LSI4552
Method: as §5

[11] = tested on: K. pneumoniae LSI CT1045; assay: reference broth microdilution (rBMD); type: cell-based; details: Klebsiella pneumoniae, LSICT1045
Method: as §5

[12] = tested on: P. mirabilis LSI 4933; assay: reference broth microdilution (rBMD); type: cell-based; details: Proteus mirabilis, LSI4933
Method: as §5

[13] = tested on: P. aeruginosa ATCC 27853; details: CLSI M100-Ed34E; cited from earlier work
[14] = tested on: E. coli; details: stated with the CLSI QC range in FIG. 22 legend; cited from earlier work
[15] = tested on: S. aureus ATCC 29213; details: CLSI M100-Ed34E, cited from earlier work
[16] = susceptible, intermediate, resistant category

C[C@H]1COc2c(N3CCN(C)CC3)c(F)cc3c(=O)c(C(=O)O)cn1c23 [Levofloxacin, levofloxacin]
MIC ([1]; ATCC25922, Table 7, read-out: MIC BLAST): 0.01 µg/mL (≈ 0.0277 µM) | MIC ([1]; ATCC25922, read-out: MIC BLAST Isolates, Table 8, isolates, 5 × 10^5 CFU/mL): 0.01 µg/mL (≈ 0.0277 µM) | MIC ([1]; ATCC25922, read-out: MIC BLAST Spiked Urine, Table 8, spiked urine sample, 5 × 10^5 CFU/mL): 0.01 µg/mL (≈ 0.0277 µM) | S, I, R [1, 16]: Susceptible | S, I, R [2, 16]: Resistant | MIC ([2]; Table 7, read-out: MIC BLAST): 36 µg/mL (≈ 99.6 µM) | MIC ([2]; Table 8, isolates, 5 × 10^5 CFU/mL, read-out: MIC BLAST Isolates): 35.6 µg/mL (≈ 98.5 µM) | MIC ([2]; Table 8, spiked urine sample, 5 × 10^5 CFU/mL, read-out: MIC BLAST Spiked Urine): 35.6 µg/mL (≈ 98.5 µM) | MIC ([3]; Klebsiella pneumoniae, LSI4552, Table 7): 0.06 µg/mL (≈ 0.166 µM) | S, I, R [3, 16]: Susceptible | MIC ([4]; Klebsiella pneumoniae, LSICT1045, Table 7): > 71 µg/mL | S, I, R [4, 16]: Resistant | MIC ([5]; Pseudomonas aeruginosa, ATCC27853, Table 6, optimized BLAST): 8 µg/mL (≈ 22.1 µM) | S, I, R [5, 16]: Susceptible | MIC ([6]; Proteus mirabilis, LSI4698, Table 7): 8.9 µg/mL (≈ 24.6 µM) | S, I, R [6, 16]: Susceptible | MIC ([7]; Proteus mirabilis, LSI4933, Table 7): 1.1 µg/mL (≈ 3.04 µM) | S, I, R [7, 16]: Susceptible | S, I, R ([8]; S. aureus ATCC 29213, susceptible, intermediate, resistant category): Susceptible | MIC ([8]; ATCC29213, S. aureus ATCC 29213, 5×10^6 CFUs/mL, cutoff 0.8, FIGS. 19-21, read-out: BLAST MIC): 0.125 µg/mL (≈ 0.346 µM) | MIC ([8]; ATCC29213, Table 7, S. aureus ATCC 29213, read-out: MIC BLAST): 0.28 µg/mL (≈ 0.775 µM) | MIC ([8]; ATCC29213, Table 8, S. aureus ATCC 29213, isolates, 5 × 10^5 CFU/mL, read-out: MIC BLAST Isolates): 0.28 µg/mL (≈ 0.775 µM) | MIC ([8]; ATCC29213, Table 8, S. aureus ATCC 29213, spiked urine sample, 5 × 10^5 CFU/mL, read-out: MIC BLAST Spiked Urine): 0.28 µg/mL (≈ 0.775 µM) | MIC [9]: 0.02 µg/mL (≈ 0.0553 µM) | MIC [10]: 0.12 µg/mL (≈ 0.332 µM) | MIC [11]: 128 µg/mL (≈ 354 µM) | MIC [12]: 1 µg/mL (≈ 2.77 µM) | MIC CLSI QC Range [13]: 0.5 to 4.0 µg/mL | breakpoint [14]: 0.5 µg/mL | MIC CLSI QC Range ([15]; listed as levofloxacin): 0.063 to 0.5 µg/mL | MIC CLSI QC Range [15]: 0.06 to 0.5 µg/mL
